The source of these data is patent US12329799B2, “Peptidyl inhibitors of calcineurin-NFAT interaction” (Ohio State Innovation Foundation, priority 2018, dated 2025).

Data set [1] relates to LPS-induced acute lung injury (ALI) in mice. Kind of data set: LPS sepsis-induced acute lung injury, intranasal CNI93. The format is in vivo, mouse. To be noted: i.n. 10 mg/kg. The procedure: As expected, LPS challenge of CPP9-VAVAA (SEQ ID NO: 224) treated mice increased the total protein in BALF by ˜2-fold and TNFα and IL-6 levels in BALF (FIGS. 11A, 11B, and 11D, respectively).
Mouse models of LPS sepsis. Mouse LPS sepsis-induced acute lung injury models were established by intraperitoneal injection of LPS at 10 mg/kg body weight. Acute lung injury was assessed by measuring secretion of TNFα, IL6 in to broncho alveolar lavage fluid (BALF), plasma levels of IL6 and TNFα, and neutrophilic infiltration. Pulmonary edema was measured by increased protein levels in BALF. Neutrophilic infiltration in to bronchoalveolar lavage fluid is determined by Hema 3.0 staining and number of neutrophils in BALF is quantitated.
Neutrophilic inflammation. BALF fluid from different treatment groups of mice was used to prepare Cytospin slides, stained using Hema 3 and number of neutrophils and macrophages per field view of microscopic view were counted and differences among groups calculated.

The subject of data set [2] is NFATc3 nuclear translocation. Kind of data set: LPS-induced NFATc3 nuclear translocation in macrophages (immunofluorescence). In kind it is cell-based, mouse. To be noted: 1 μM peptide pretreatment, LPS stimulation. The procedure:
Endotoxin lipopolysaccharide (LPS) was previously shown to induce NFATc3 translocation from the cytoplasm into the nucleus and upregulation of NFATc3 target genes in macrophages.
Immunofluorescence. Mouse BMDM were pretreated with 1 μM of control CPP9 (SEQ ID NO: 76)-VAVAA (SEQ ID NO: 224)-Biotin or CNI93-Biotin peptides for 5 min and stimulated with PBS or LPS (100 ng/mL) for 1 h. Treated cells were washed, fixed in 4% paraformaldehyde and incubated sequentially with anti-rabbit NFATc3, Anti-rabbit Alexa Fluor™ 488 Conjugate and Alexa Fluor™ 594 Streptavidin. Cells were washed three times in 1×PBS after incubation with each antibody.

Data set [3] is described as follows: Maximum tolerated dose (body weight over 10 days). In kind it is in vivo.
Data set [4] relates to NFAT-mediated luciferase expression in Jurkat cells. Kind of data set: NFAT luciferase assay in Jurkat cells. In kind it is cell-based. To be noted: 10 μM, Jurkat cells. The procedure:
In a separate experiment, CNI93 was also tested against Jurkat cells expressing a luciferase gene under the transcriptional control of NFAT.
NFAT Luciferase Assay. Jurkat-Lucia cells maintained in RPMI-1640 supplemented with 10% FBS, 1% penicillin/streptomycin (v/v/v) and 100 μg/mL normocin were harvested after a passage with 50 μg/mL selective antibiotic Zeocin at 300×RCF for 5 min. Cells were resuspended in warm RPMI-1640 with antibiotics but without FBS to a final density of 2×10^6 cells/mL and seeded into white-on-white cell-culture treated 96-well plates. To each well was added 10 μL of DPBS containing compounds which dilute to the desired concentrations followed by 170 μL of cell suspension […] and incubated at 37° C. for 2 h. The cells were induced by treatment with 50 ng/mL PMA and 3 μg/mL ionomycin, Ca^2+ salt in FBS to achieve a final FBS concentration of 10% in each well (with FBS only as control). The plate was incubated for an additional 4 h at 37° C., when 20 μL of each sample was withdrawn and mixed with 50 μL of Quanti-Luc assay solution. The luminescence of the mixture was immediately measured on a Tecan Infinite M1000 plate reader.

Data set [5] deals with LPS-induced TNFα and IL-6 secretion, mouse total lung macrophages. Kind of data set: Inhibition of TNFα and IL-6 secretion by macrophage. In kind it is cell-based. The conditions noted are these: 100 nM, 1 μM, or 10 μM for 2 h, then LPS 6 h. The procedure:
Mouse total lung macrophages were obtained from 5 mice and pooled. Macrophages were pretreated with 100 nM, 1 μM, or 10 μM inhibitor for 2 h and stimulated with LPS ([…]) or PBS for 6 h. Cell supernatants were collected and analyzed for TNFα levels (FIG. 20A) or IL-6 levels (FIG. 20B) by R&D Systems TNFα ELISA kit and R&D Systems IL-6 ELISA kit.

The target in the next data set is T1, Calcineurin (GST-CN) (Homo sapiens, UniProt Q08209).
T1 construct: made in house; host or cells: E. coli BL21
Kind of data set: Direct binding of FITC-labeled peptides to CN by fluorescence anisotropy/polarization. The protocol:
To facilitate concentration determination and binding analysis by fluorescence anisotropy (FA), a dipeptide Tyr-Lys was added to the C-terminus of ZIZIT (SEQ ID NO:1) and the lysine side chain was labeled with fluorescein isothiocyanate (FITC). The resulting peptide,
Fluorescence Polarization. Fluorescence polarization (FP) experiments were carried out to measure binding affinity in both direct and competitive binding experiments using GST-CN and peptides prepared as mentioned previously. For direct binding, 50 nM FITC-labeled peptide was prepared in PBS, pH 7.4 containing 5 mM DTT and 0.01% Triton-X100 and then added to GST-CN diluted in PBS containing 0.01% Triton-X100. Solutions were incubated for 1 h at RT with gentle mixing and then pipetted into black 384-well microplates. Fluorescence polarization was measured on a TECAN Infinite M1000 plate reader and titration curves were fitted using both KaelidaGraph v 3.6 and GraphPad PRISM to the equation:
[formula] • where FP is the measured fluorescence polarization, Amin is the minimum FP value, Amax is the maximum FP signal, Qb is the quantum yield of the bound fluorophore, Qf is the quantum yield of the free fluorophore, L is the ligand concentration, KD is the dissociation constant and x is the protein concentration.
(In fluorescence polarisation assays a small probe gives low polarisation when free and higher when bound to something large.)

For another data set, the system named is H441 (lung cancer) cells. Kind of data set: MTT assay, H441. The format is cell-based. The conditions noted are these: 72 h. The protocol: MTT Proliferation Assay. HeLa, Jurkat-Lucia, or H441 cells were seeded into a 96-well microplate (5000 cells per well) in full growth media and incubated at 37° C. overnight. A serial dilution of each compound was prepared in DPBS and then added to each well. The treated cells were incubated at 37° C. with 5% CO2 for 72 h. Following compound treatment, 10 μL of MTT stock solution was added to each well. After an additional 4 h at 37° C., 100 μL of SDS-HCl solubilizing solution was added to each well and the plate was returned to the incubator overnight at 37° C. A Tecan Infinite M1000 Pro microplate reader was used the following morning to measure the absorbance of the formazan product at 565 nm.
On the technique in general: Tetrazolium assays rely on reduction of a dye to a coloured formazan, in cell work by metabolically active cells.

The subject of data set [6] is LPS-induced TNFα production in lung macrophages. Kind of data set: LPS-induced TNFα secretion by lung macrophages (ELISA). In kind it is cell-based, mouse. From the text: Cell supernatants were collected and analyzed for TNFα levels by R&D systems TNFα ELISA kit.

Structures are written as SMILES. Positions of bridges follow the written chain, without caps; N, C: chain ends. Non-standard residues stand in square brackets, D forms with d. Residues, ends and D or L forms follow the SMILES beside them. Chains are numbered I, II in the order given. *: point of attachment. Benzoyl(2,3-Cl2) = O=C(c1cccc(Cl)c1Cl)*; 2Nal = N[C@@H](Cc1ccc2ccccc2c1)C(=O)O; Tle = CC(C)(C)[C@H](N)C(=O)O; βAla = NCCC(=O)O

T1 sequence (Q08209 2-347 limits assumed): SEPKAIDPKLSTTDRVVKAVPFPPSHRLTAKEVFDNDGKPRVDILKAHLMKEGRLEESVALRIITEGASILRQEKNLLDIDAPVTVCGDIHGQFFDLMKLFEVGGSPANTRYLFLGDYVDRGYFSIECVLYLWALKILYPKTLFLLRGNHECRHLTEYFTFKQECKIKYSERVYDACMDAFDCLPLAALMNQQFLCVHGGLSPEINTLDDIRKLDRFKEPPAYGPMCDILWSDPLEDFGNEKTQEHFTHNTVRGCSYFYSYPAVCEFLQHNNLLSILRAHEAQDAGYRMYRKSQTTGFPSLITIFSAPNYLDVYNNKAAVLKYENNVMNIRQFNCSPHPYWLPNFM

In the case of `CC[C@H](C)[C@H](NC(=O)[C@@H](NC(=O)c1cccc(Cl)c1Cl)C(C)(C)C)C(=O)N[C@H](C(=O)N[C@H](C(=O)N[C@H](C(=O)N[C@@H](CCC(N)=O)C(=O)N[C@@H](Cc1c[nH]cn1)C(=O)N[C@H](CC(C)C)C(=O)N[C@@H](CO)C(=O)NCCC(=O)N[C@@H](CCCCNC(=O)CC[C@@H]1NC(=O)[C@@H](CCCNC(=N)N)NC(=O)[C@H](CCCNC(=N)N)NC(=O)[C@@H](CCCNC(=N)N)NC(=O)[C@H](CCCNC(=N)N)NC(=O)[C@H](Cc2ccc3ccccc3c2)NC(=O)[C@@H](Cc2ccccc2)NC1=O)C(N)=O)[C@@H](C)O)[C@@H](C)CC)C(C)(C)C` [CNI93] (I: {Benzoyl(2,3-Cl2)}-[Tle]I[Tle]ITQH[dL]S[βAla]K-NH2 / II: cyclo([2Nal]R[dR]R[dR]E[dF]); amide I:11-II:6 (inferred); ring closure inferred), in data set [1] (1 h before LPS i.p. 10 mg/kg), the “neutrophilic infiltration into the lungs” value is given as “prevented”; the “protection from LPS-induced production of cytokines and protein leakage into BALF” value is recorded as “almost completely protected”. Also, in data set [1] (LPS sepsis mice), the “decrease of plasma level of IL6” value is approximately 4 fold and the “decrease of plasma level of TNFα” value is approximately 4 fold. The “LPS-induced nuclear translocation of NFATc3” value in data set [2] is on record as “completely blocked”. Besides, in data set [3] (intranasal 10 mg/kg), the body weight result is given as “steady increase in body weight similar to healthy controls”; the “survival and signs of distress” value was “survived and showed no visible sign of distress”. Further, in data set [3] (intranasal 50 mg/kg), the body weight result is “steady increase in body weight similar to healthy controls”; the “survival and signs of distress” value was “survived and showed no visible sign of distress”. For the same molecule, the “phorbol ester- and ionomycin-induced expression of luciferase” value in data set [4] is listed as “potently inhibited”. Moreover, the “secreted amounts of TNFα and IL6” value in data set [5] is “dose-dependently reduced”. For the same molecule, the “lower CN-binding affinity relative to peptide 14” value on Calcineurin (GST-CN) came to 8 fold. Further, the cytotoxicity result in the data set with H441 (lung cancer) cells (H441, 25 μM) is recorded as “No significant cytotoxicity”. Moreover, the cell viability result in the data set on H441 (lung cancer) cells (H441, 50 μM) is given as “Reduction in cell viability”. In data set [6] (dose-dependent, 100 nM-10 μM, LPS 100 ng/mL, 16 h), the “decrease of LPS-induced TNFα production” value is 24-59%. For the same molecule, the “potency as immunosuppressant relative to CsA” value in data set [6] (ex vivo assay) is approximately 10 fold.
